Laboratory results from patent publication EP0523769B1, “Gram-positive alkaliphilic microorganisms” (GENENCOR INTERNATIONAL, INC., priority 1991, dated 1993).

System: Gram-positive alkaliphilic bacteria
Test: Antibiotic sensitivity, susceptibility test discs (characters 84-105)
Type: cell-based

Row | Compound | Percentage Positive States, antibiotic sensitivity (CLUSTER 1) | Percentage Positive States, antibiotic sensitivity (CLUSTER 2) | Percentage Positive States, antibiotic sensitivity (CLUSTER 3) | Percentage Positive States, antibiotic sensitivity (CLUSTER 4) | Percentage Positive States, antibiotic sensitivity (CLUSTER 5) | Percentage Positive States, antibiotic sensitivity (CLUSTER 6)
1 | Gentamycin | 60% | 0% | 50% | 50% | 50% | 25%
2 | NC[C@@H]1O[C@H](O[C@H]2[C@@H](O)[C@H](O[C@@H]3[C@@H](O)[C@H](N)C[C@H](N)[C@H]3O[C@H]3O[C@H](CN)[C@@H](O)[C@H](O)[C@H]3N)O[C@@H]2CO)[C@H](N)[C@@H](O)[C@@H]1O [Neomycin] | 0% | 0% | 0% | 50% | 17% | 0%
3 | Tetracyclin | 80% | 60% | 0% | 100% | 100% | 25%
4 | Polymixin | 40% | 20% | 0% | 0% | 0% | 0%
